The subject of the assay is Phakopsora pachyrhizi. Kind of assay: Phakopsora pachyrhizi test in soybean (greenhouse, preventive activity, disease severity rating). In kind it is in vivo. The settings on record: preventive spray on soybean, compared to the untreated check. On the procedure:
To test the preventive activity of compounds, healthy young soybean plants, raised in the greenhouse, were sprayed with the active compound solution at the stated application rates inside spray cabinets using hallowcone nozzles. One day after treatment, the plants were inoculated with a suspension containing 2.1×10^6 Phakopsora pachyrhizi spores. The inoculated plants were then kept in the greenhouse chamber at 25° C. temperature and 90% relative humidity for disease expression. A visual assessment of the compound's performance was carried out by rating the disease severity (0-100% scale) on treated plants on 3, 7, 10 and 15 days after application. Efficacy (% control) of the compounds was calculated by comparing the disease rating in the treatment with the one of the untreated control. The treated plants were also assessed for plant compatibility by recording symptoms like necrosis, chlorosis and stunting.

For `O=S(=O)(c1ccccc1F)N1CC[C@H](Oc2ccc(-c3noc(C(F)(F)F)n3)cc2)C1` [Compound 33, (S)-3-(4-((1-((2-fluorophenyl)sulfonyl)pyrrolidin-3-yl)oxy)phenyl)-5-(trifluoromethyl)-1,2,4-oxadiazole], the pest or weed control at 500 ppm was over 70%.

Compound `O=C(c1cccc(Br)c1)N1CC[C@H](Oc2ccc(-c3noc(C(F)(F)F)n3)cc2)C1` [Compound 3, (S)-(3-bromophenyl)(3-(4-(5-(trifluoromethyl)-1,2,4-oxadiazol-3-yl)phenoxy)pyrrolidin-1-yl)methanone] returned a pest or weed control at 500 ppm of over 70%.

For `CN(C)c1ccc(C(=O)N2CC[C@H](Oc3ccc(-c4noc(C(F)(F)F)n4)cc3)C2)cc1` [Compound 8, (S)-(4-(dimethylamino)phenyl)(3-(4-(5-(trifluoromethyl)-1,2,4-oxadiazol-3-yl)phenoxy)pyrrolidin-1-yl)methanone], the pest or weed control at 500 ppm was over 70%.

Turning to `O=C(c1cccnc1)N1CC[C@H](Oc2ccc(-c3noc(C(F)(F)F)n3)c(F)c2)C1` [Compound 65, (S)-(3-(3-fluoro-4-(5-(trifluoromethyl)-1,2,4-oxadiazol-3-yl)phenoxy)pyrrolidin-1-yl)(pyridin-3-yl)methanone], the pest or weed control at 500 ppm is over 70%.

Consider `O=C(c1ccc(C(F)(F)F)cc1)N1CCC(Oc2ccc(-c3noc(C(F)(F)F)n3)cc2)CC1` [Compound 102, (4-(4-(5-(trifluoromethyl)-1,2,4-oxadiazol-3-yl)phenoxy)piperidin-1-yl)(4-(trifluoromethyl)phenyl)methanone], for which the pest or weed control at 500 ppm is over 70%.

In turn, `O=C(c1ccc(C(F)(F)F)cc1)N1CCC(Oc2cccc(-c3noc(C(F)(F)F)n3)c2)C1` (stereo not drawn) [Compound 143, (3-(3-(5-(trifluoromethyl)-1,2,4-oxadiazol-3-yl)phenoxy)pyrrolidin-1-yl)(4-(trifluoromethyl)phenyl)methanone] had a pest or weed control at 500 ppm of over 70%.

In the case of `O=S(=O)(c1cccc(C(F)(F)F)c1)N1CC[C@H](Oc2ccc(-c3noc(C(F)(F)F)n3)cn2)C1` [Compound 151, (S)-5-(trifluoromethyl)-3-(6-((1-((3-(trifluoromethyl)phenyl)sulfonyl)pyrrolidin-3-yl)oxy)pyridin-3-yl)-1,2,4-oxadiazole], the pest or weed control at 500 ppm was over 70%.

On to `O=C(c1ccccc1F)N1CC[C@H](Oc2ccc(-c3noc(C(F)(F)F)n3)c(F)c2)C1` [Compound 63, (S)-(3-(3-fluoro-4-(5-(trifluoromethyl)-1,2,4-oxadiazol-3-yl)phenoxy)pyrrolidin-1-yl)(2-fluorophenyl)methanone], for which the pest or weed control at 500 ppm is over 70%.

`O=S(=O)(c1ccccc1)N1CC[C@@H](Oc2ccc(-c3noc(C(F)(F)F)n3)cn2)C1` [Compound 71, (R)-3-(6-((1-(phenylsulfonyl)pyrrolidin-3-yl)oxy)pyridin-3-yl)-5-(trifluoromethyl)-1,2,4-oxadiazole] had a pest or weed control at 500 ppm of over 70%.

As to `CC(C)(C)OC(=O)N1CC[C@H](Oc2ccc(-c3noc(C(F)(F)F)n3)nc2)C1` [Compound 27, tert-butyl (S)-3-((6-(5-(trifluoromethyl)-1,2,4-oxadiazol-3-yl)pyridin-3-yl)oxy)pyrrolidine-1-carboxylate], the pest or weed control at 500 ppm was over 70%.

`COc1ccc(C(=O)N2CC[C@H](Oc3ccc(-c4noc(C(F)(F)F)n4)cn3)C2)cc1` [Compound 46, (S)-(4-methoxyphenyl)(3-((5-(5-(trifluoromethyl)-1,2,4-oxadiazol-3-yl)pyridin-2-yl)oxy)pyrrolidin-1-yl)methanone] gave a pest or weed control at 500 ppm of over 70%.

Compound `N#Cc1ccc(S(=O)(=O)N2CC[C@H](Oc3ccc(-c4noc(C(F)(F)F)n4)cc3)C2)cc1` [Compound 121, (S)-4-((3-(4-(5-(trifluoromethyl)-1,2,4-oxadiazol-3-yl)phenoxy)pyrrolidin-1-yl)sulfonyl)benzonitrile] registered a pest or weed control at 500 ppm of over 70%.

Regarding `CN(c1ccc(-c2noc(C(F)(F)F)n2)cc1)C1CN(C(=O)c2ccc(C(F)(F)F)cc2)C1` [Compound 101, (3-(methyl(4-(5-(trifluoromethyl)-1,2,4-oxadiazol-3-yl)phenyl)amino)azetidin-1-yl)(4-(trifluoromethyl)phenyl)methanone], the pest or weed control at 500 ppm was over 70%.

In the case of `O=C(C1CCC1)N1CC[C@H](Oc2ccc(-c3noc(C(F)(F)F)n3)cc2)C1` [Compound 9, (S)-cyclobutyl(3-(4-(5-(trifluoromethyl)-1,2,4-oxadiazol-3-yl)phenoxy)pyrrolidin-1-yl)methanone], the pest or weed control at 500 ppm was over 70%.

The compound `O=C(c1cccc(F)c1)N1CC[C@H](Oc2ccc(-c3noc(C(F)(F)F)n3)c(F)c2)C1` [Compound 64, (S)-(3-(3-fluoro-4-(5-(trifluoromethyl)-1,2,4-oxadiazol-3-yl)phenoxy)pyrrolidin-1-yl)(3-fluorophenyl)methanone] returned a pest or weed control at 500 ppm of over 70%.

For `O=S(=O)(c1ccc(Br)cc1)N1CC[C@H](Oc2ccc(-c3noc(C(F)(F)F)n3)cc2)C1` [Compound 116, (S)-3-(4-((1-((4-bromophenyl)sulfonyl)pyrrolidin-3-yl)oxy)phenyl)-5-(trifluoromethyl)-1,2,4-oxadiazole], the pest or weed control at 500 ppm was over 70%.

For the compound `CCCS(=O)(=O)N1CC[C@H](Oc2ccc(-c3noc(C(F)(F)F)n3)cc2)C1` [Compound 115, (S)-3-(4-((1-(propylsulfonyl)pyrrolidin-3-yl)oxy)phenyl)-5-(trifluoromethyl)-1,2,4-oxadiazole], the pest or weed control at 500 ppm is over 70%.

With `O=C(C1CC1)N1CC[C@H](Oc2ccc(-c3noc(C(F)(F)F)n3)cc2)C1` [Compound 43, (S)-cyclopropyl(3-(4-(5-(trifluoromethyl)-1,2,4-oxadiazol-3-yl)phenoxy)pyrrolidin-1-yl)methanone], the pest or weed control at 500 ppm was over 70%.

The compound `O=C(c1ccc(OC(F)(F)F)cc1)N1CC[C@H](Oc2ccc(-c3noc(C(F)(F)F)n3)cc2)C1` [Compound 36, (S)-(4-(trifluoromethoxy)phenyl)(3-(4-(5-(trifluoromethyl)-1,2,4-oxadiazol-3-yl)phenoxy)pyrrolidin-1-yl)methanone] returned a pest or weed control at 500 ppm of over 70%.

`O=C(c1ccccc1)N1CC[C@H](Oc2ccc(-c3noc(C(F)(F)F)n3)cc2)C1` [Compound 15, (S)-phenyl(3-(4-(5-(trifluoromethyl)-1,2,4-oxadiazol-3-yl)phenoxy)pyrrolidin-1-yl)methanone] yielded a pest or weed control at 500 ppm of over 70%.

The compound `CN(c1ccc(-c2noc(C(F)(F)F)n2)cc1)C1CN(C(=O)c2cccc(Cl)c2)C1` [Compound 88, (3-chlorophenyl)(3-(methyl(4-(5-(trifluoromethyl)-1,2,4-oxadiazol-3-yl)phenyl)amino)azetidin-1-yl)methanone] gave a pest or weed control at 500 ppm of over 70%.

`O=C(c1cccnc1)N1CC[C@@H](Oc2ccc(-c3noc(C(F)(F)F)n3)cn2)C1` [Compound 79, (R)-pyridin-3-yl(3-((5-(5-(trifluoromethyl)-1,2,4-oxadiazol-3-yl)pyridin-2-yl)oxy)pyrrolidin-1-yl)methanone] displayed a pest or weed control at 500 ppm of over 70%.

As for `O=C(c1ccccc1)N1CCC(Oc2ccc(-c3noc(C(F)(F)F)n3)cc2)CC1` [Compound 81, phenyl(4-(4-(5-(trifluoromethyl)-1,2,4-oxadiazol-3-yl)phenoxy)piperidin-1-yl)methanone], the pest or weed control at 500 ppm was over 70%.

For `COc1ccc(S(=O)(=O)N2CC[C@H](Oc3ccc(-c4noc(C(F)(F)F)n4)cn3)C2)cc1` [Compound 105, (S)-3-(6-((1-((4-methoxyphenyl)sulfonyl)pyrrolidin-3-yl)oxy)pyridin-3-yl)-5-(trifluoromethyl)-1,2,4-oxadiazole], the pest or weed control at 500 ppm was over 70%.

With `COc1ccc(C(=O)N2CCC(Oc3cccc(-c4noc(C(F)(F)F)n4)c3)C2)cc1` (stereo not drawn) [Compound 146, (4-methoxyphenyl)(3-(3-(5-(trifluoromethyl)-1,2,4-oxadiazol-3-yl)phenoxy)pyrrolidin-1-yl)methanone], the pest or weed control at 500 ppm was over 70%.

With `N#Cc1ccc(S(=O)(=O)N2CC[C@H](Oc3ccc(-c4noc(C(F)(F)F)n4)cn3)C2)cc1` [Compound 150, (S)-4-((3-((5-(5-(trifluoromethyl)-1,2,4-oxadiazol-3-yl)pyridin-2-yl)oxy)pyrrolidin-1-yl)sulfonyl)benzonitrile], the pest or weed control at 500 ppm was over 70%.

In turn, `O=S(=O)(c1ccc(Cl)cc1Cl)N1CC[C@H](Oc2ccc(-c3noc(C(F)(F)F)n3)cc2)C1` [Compound 120, (S)-3-(4-((1-((2,4-dichlorophenyl)sulfonyl)pyrrolidin-3-yl)oxy)phenyl)-5-(trifluoromethyl)-1,2,4-oxadiazole] yielded a pest or weed control at 500 ppm of over 70%.

The compound `O=C(Nc1ccc(F)cc1)N1CC[C@H](Oc2ccc(-c3noc(C(F)(F)F)n3)cc2)C1` [Compound 38, (S)-N-(4-fluorophenyl)-3-(4-(5-(trifluoromethyl)-1,2,4-oxadiazol-3-yl)phenoxy)pyrrolidine-1-carboxamide] displayed a pest or weed control at 500 ppm of over 70%.

`O=C(c1cccc(Cl)c1)N1CCC(Oc2cccc(-c3noc(C(F)(F)F)n3)c2)C1` (stereo not drawn) [Compound 144, (3-chlorophenyl)(3-(3-(5-(trifluoromethyl)-1,2,4-oxadiazol-3-yl)phenoxy)pyrrolidin-1-yl)methanone] came in with a pest or weed control at 500 ppm of over 70%.

Take `O=S(=O)(c1cccc(F)c1)N1CC[C@H](Oc2ccc(-c3noc(C(F)(F)F)n3)cn2)C1` [Compound 149, (S)-3-(6-((1-((3-fluorophenyl)sulfonyl)pyrrolidin-3-yl)oxy)pyridin-3-yl)-5-(trifluoromethyl)-1,2,4-oxadiazole]: the pest or weed control at 500 ppm was over 70%.

The record behind these values is patent publication US20210392895A1, “NOVEL OXADIAZOLES” (PI INDUSTRIES LIMITED, priority 2018, published 2021).
